# Source: patent US6737425B1, “N,N-substituted cyclic amine derivatives” (Eisai Co., Ltd., priority 1998, dated 2004)
# “And” between values parts separate entries of the source, which are not always exact repeats. Equal values may be shown once.
# Experiments:
# mice in a formalin test = assay: Antalgic effect (II) on mice in a formalin test (comparison with morphine and indomethacin); format: in vivo
# Protocol: Antalgic Effect (II) on Mice in a Formalin Test
# The typical example of the compound of the present invention (the compound in Example 1) was compared with morphine and indomethacin in the same manner as in Pharmacological Experimental Example 5 above.
# 20.4 mg of the compound of the present invention was weighed, and 10.2 ml of 5.28% mannitol was added thereto to prepare 2 mg/ml (20 mg/kg) solution. Then, 3.8 ml of 5.28% mannitol was added to 3.8 ml of the 2 mg/ml solution to prepare 1 mg/ml (10 mg/kg) solution. Finally, 2.5 ml of 5.28% mannitol was added to 2.5 ml of the 1 mg/ml solution to prepare 0.5 mg/ml (5 mg/kg) solution. The test compound was weighed and prepared on the day when the experiment was conducted.
# b-1) Morphine 17.0 mg of morphine purchased as a reagent was weighed, and 5.67 ml physiological saline was added thereto to form 3 mg/ml (30 mg/kg) solution. Then, 2.6 ml physiological saline was added to 1.3 ml of the 3 mg/ml solution to prepare 1 mg/ml (10 mg/kg) solution. Finally, 2.1 ml physiological saline was added to 0.9 ml of the 1 mg/ml solution to prepare 0.3 mg/ml (3 mg/kg) solution. The test compound was weighed and prepared on the day when the experiment was conducted.
# 12.9 mg of indomethacin purchased as a reagent was weighed, and 12.9 ml of 0.5% methyl cellulose (MC) was added thereto to form 1 mg/ml (10 mg/kg) suspension. Then, 2.24 ml of 0.5% MC was added to 0.96 ml of the 1 mg/ml suspension to prepare 0.3 mg/ml (3 mg/kg) suspension. Finally, 1.6 ml of 0.5% MC was added to 0.8 ml of the 0.3 mg/ml suspension to prepare 0.1 mg/ml (1 mg/kg) suspension. The test compound was weighed and prepared on the day when the experiment was conducted.
# The treatment group by the compound of the present invention consisted of 4 groups in total, that is, a control group, a 5 mg/kg compound administration group, a 10 mg/kg compound administration group, and a 20 mg/kg compound administration group, and each group consisted of 5 animals.
# The control group was given 0.1 ml of 5.28% mannitol per 10 g of the body weight via the tail vein. The compound of the present invention was administered via the tail vein at each concentration (0.5 mg/ml, 1 mg/ml, and 2 mg/ml) in an volume of 0.1 ml per 10 g of the body weight into the 5 mg/kg group, 10 mg/kg group and 20 mg/kg group, respectively.
# The treatment group by morphine consisted of 4 groups in total, that is, a control group, a 3 mg/kg morphine administration group, a 10 mg/kg morphine administration group, and a 30 mg/kg morphine administration group, and each group consisted of 5 animals.
# The control group was orally given 0.1 ml of physiological saline per 10 g of the body weight. Morphine was orally administered at each concentration (0.3 mg/ml, 1 mg/ml, and 3 mg/ml) in a volume of 0.1 ml per 10 g of the body weight into the 3 mg/kg group, 10 mg/kg group and 30 mg/kg group, respectively.
# The treatment group by indomethacin consisted of 4 groups in total, that is, a control group, a 1 mg/kg indomethacin administration group, a 3 mg/kg indomethacin administration group, and a 10 mg/kg indomethacin administration group, and each group consisted of 5 animals.
# The control group was orally given 0.1 ml of 0.5% MC per 10 g of the body weight. Indomethacin was orally administered at each concentration (0.1 mg/ml, […], and 1 mg/ml) in a volume of 0.1 ml per 10 g of the body weight into the 1 mg/kg group, 3 mg/kg group and 10 mg/kg group, respectively.
# 5.28% mannitol was administered via the tail vein into each group given the compound of the present invention or into the control group, and the animals were placed in a transparent plastic observation cage. 5 minutes later, 20 μl of 3% formalin was subcutaneously administered into the bottom of the left hind leg of each mouse. The duration of the behavior of mouse's licking the left hind leg after administration of formalin was measured for 5 minutes and used as an indication of pain. The duration was expressed in second. […]
# formalin test = conditions: administered into spinal cord, literature reports (1, 2); cited from earlier work
# [1] = tested on: rat model with local cerebral ischemia; conditions: literature reports (13, 14, 15); cited from earlier work
# [2] = tested on: rat model with occlusion in the middle cerebral artery; assay: Effect (II) of reducing infarct volume in a rat model with occlusion in the middle cerebral artery (permanent occlusion); format: in vivo
# Protocol: Effect (II) of Reducing Infarct volume in a Rat Model with Occlusion in the Middle Cerebral Artery
# The typical example of the compound of the present invention (the compound in Example 1) was compared with compounds disclosed in JP 8-508037-A (WO 94/25469, U.S. Pat. No. 5,750,525), which have affinity for AMPA receptors and is effective against cellular necrosis after ischemia in anoxia and hypocalcemia.
# The compound of the present invention was dissolved in physiological saline to be adjusted to a dosage of 10 or 20 mg/kg/h just before use.
# The control compound was dissolved in physiological saline to be adjusted to a dosage of 3 mg/kg/h just before use.
# Occlusion in the middle cerebral artery was conducted according to the method described above. However, the middle cerebral artery was permanently occluded without removing the nylon embolus.
# Two hours after the middle cerebral artery was occluded, a syringe containing the medium or the sample (10 or 20 mg/kg/h) was attached to a catheter for intravenous administration, and half (0.31 ml) of the dosage to be infused for 1 hour was intravenously administered for 1 minute. Thereafter, the medium or the sample was administered continuously for 6 hours at a rate of 0.616 ml/h by the use of a syringe pump for infusion. During administration and for 2 hours after administration was finished, the temperature of the rectum was maintained in the range of 37.0 to 38.5° C. in a system for controlling body temperature. After the body temperature control was finished, the animal was returned to a cage and maintained for 1 day in a breeding room.
# Two hours after the middle cerebral artery was occluded, a syringe containing the medium or the sample (3 mg/kg/h) was attached to a catheter for intravenous administration, and the medium or the sample was administered continuously for 6 hours at a rate of 0.616 ml/h by means of the syringe pump for infusion. During administration and for 2 hours after administration was finished, the temperature of the rectum was maintained in the range of 37.0 to 38.5° C. in the system for controlling body temperature. After the body temperature control was finished, the animal was returned to a cage and maintained for 1 day in a breeding room.
# The middle cerebral artery was permanently occluded by the nylon embolus, and the infarct volume was measured 24 hours after the occlusion was conducted.
compound,measurement,setting,value
COc1ccc2c(c1)c(CC(=O)O)c(C)n2C(=O)c1ccc(Cl)cc1 [indomethacin],"average left hind leg-licking time, Mean","mice in a formalin test; 1 mg/kg p.o., formalin 90 minutes later",87.8 s
same,"average left hind leg-licking time, Mean","mice in a formalin test; 3 mg/kg p.o., formalin 90 minutes later",75.8 s
same,"average left hind leg-licking time, Mean","mice in a formalin test; 10 mg/kg p.o., formalin 90 minutes later",84.0 s
same,antalgic effect in the formalin test,mice in a formalin test; overall conclusion of the comparison,does not have any effect
CSCC[C@@H]1NC(=O)[C@H](CC(C)C)NC(=O)[C@H](CCCNC(=N)N)NC(=O)[C@H](CO)NC(=O)[C@@H]2CSSC[C@@H]3NC(=O)[C@H](CO)NC(=O)CNC(=O)[C@H]([C@@H](C)O)NC(=O)[C@H](CSSC[C@H](N)C(=O)N[C@@H](CCCCN)C(=O)NCC(=O)N[C@@H](CCCCN)C(=O)NCC(=O)N[C@@H](C)C(=O)N[C@@H](CCCCN)C(=O)N2)NC(=O)[C@H](CSSC[C@@H](C(N)=O)NC(=O)[C@H](CCCCN)NC(=O)CNC(=O)[C@H](CO)NC(=O)[C@H](CCCNC(=N)N)NC3=O)NC(=O)[C@H](CC(=O)O)NC(=O)[C@H](Cc2ccc(O)cc2)NC1=O [SNX-111],antalgic action,formalin test,has an antalgic action
same,protective action on nerve cells,[1],serves for protection against the liberation of glutamic acid from the cerebral cortex and against the subsequent disturbance of nerve cells
"O=c1[nH]c2cc(C(F)(F)F)c(N3CCOCC3)cc2n(CP(=O)(O)O)c1=O [control compound, {[3,4-Dihydro-7-(4-morpholinyl)-2,3-dioxo-6-(trifluoromethyl)-1-(2H)-quinoxalinyl]methyl}phosphonic acid, reference compound]",infarct volume compared with the control group,[2]; 3 mg/kg/h i.v.,no difference from the control group
same,"Infarct volume in the cerebral cortex, Mean","[2]; 3 mg/kg/h i.v. (table: 3 mg/kg), from two hours after occlusion, 6 hours, 24 hours after occlusion",284.9±10.9 mm^3 and 284.9 mm^3
CN1CC[C@]23c4c5ccc(O)c4O[C@H]2[C@@H](O)C=C[C@H]3[C@H]1C5 [morphine],"average left hind leg-licking time, Mean","mice in a formalin test; 3 mg/kg p.o., formalin 30 minutes later",68.2 s
same,"average left hind leg-licking time, Mean","mice in a formalin test; 10 mg/kg p.o., formalin 30 minutes later",58.0 s
same,"average left hind leg-licking time, Mean","mice in a formalin test; 30 mg/kg p.o., formalin 30 minutes later",29.6 s
ω-agatoxin IVA,protective action on nerve cells,[1],has a protective action on nerve cells
